Experiments:
Type in all cases: cell-based, human
SK-MEL-28 [1] = assay: Dopaquinone content determination (OD475) in SK-MEL cells; conditions: assayed day 5
Protocol: (§1) In vitro determinations were performed following the method devised by Dooley et al. (Skin Pharmacol. 1994; 7:188-200) in order to evaluate the capacity of idebenone to inhibit melanogenesis, according to the process described below:
(§2) Cells: The study was carried out using a cell line derived from human melanoma, provided by ABAC (Asociación Banco Argentino de Células—Cell Bank of Argentina), with melanin synthesis capability (SK-MEL-28, ATCC origin). The cells were grown in plastic culture bottles or in 24-well plastic dishes in a modified Eagle medium (DMEM) supplemented with 10% fetal bovine serum (FBS) and were maintained at 37° C. in a 5% CO2 atmosphere.
(§3) Study of in vitro compounds: SK-MEL cells detached with trypsin were seeded on plastic 24-well dishes (density of 1×10^5 cells per well) and incubated for 24 hours in modified Eagle medium (DMEM) supplemented with 10% fetal bovine serum (FBS) prior to treating with the compound to be evaluated. After 24 hours have lapsed, the medium was replaced with 990 μl of fresh medium. 10 μl of sterile vehicle (50% propylene glycol, 30% ethanol and 20% distilled water) containing different concentrations of the compounds to be evaluated were added to this fresh medium.
(§4) Decimal dilutions of each compound in the sterile vehicle were prepared in order to obtain final concentrations of the compound to be studied ranging between 1.000 and 0.01 μg/ml. […]
[…] […] All the concentrations of the compounds were studied in triplicate, comparing the mean of the 3 wells treated with the compounds with those treated with the vehicle alone.
(§5) Melanin content determination: The SK-MEL cell melanin content was determined after stirring the culture medium and washing the cells with PBS. The cells were then lysated by means of adding 1 ml of 1N NaOH to each well and repeated manual pipetting. The raw cell extract was analyzed using a spectrophotometer at 400 and 475 nm to determine the melanin and dopaquinone content, respectively. The results were expressed as a percentage of the cell cultures treated with the vehicle.

SK-MEL-28 [2] = assay: Cell number quantitation with violet crystal
Protocol: Cells: The study was carried out using a cell line derived from human melanoma, provided by ABAC (Asociación Banco Argentino de Células—Cell Bank of Argentina), with melanin synthesis capability (SK-MEL-28, ATCC origin). […] Study of in vitro compounds: […] After 24 hours have lapsed, the medium was replaced with 990 μl of fresh medium. 10 μl of sterile vehicle (50% propylene glycol, 30% ethanol and 20% distilled water) containing different concentrations of the compounds to be evaluated were added to this fresh medium. […] On the fourth day, the cells were not treated, and the remaining adherent cells were assayed on the fifth day according to the methods described below. The cells were thus continuously exposed to the compounds under study for the 5 days the culture lasted. All the concentrations of the compounds were studied in triplicate, comparing the mean of the 3 wells treated with the compounds with those treated with the vehicle alone. Cell number quantitation with violet crystal: A stain with a violet crystal aqueous solution was used for the purpose of determining the number of cells adhering to the plastic surviving in vitro treatment by means of indirect methods. […] The dishes were stained for 5 minutes at room temperature on a rotary platform, with gentle stirring. Then the excess colorant was decanted by turning the dish over and the entire dish was submerged 4 times in distilled water in a suitable container. After rinsing, the dishes were turned over and allowed to drip on absorbent paper until the excess water was completely removed. […] The plates were finally placed on a rotary agitator for 30 minutes at room temperature. […] In order to determine the fraction of cells surviving treatment at a specific concentration of the experimental agent, the OD590 of the treated wells (average of three measurements) was divided by the OD590 of the wells used with a control vehicle (average of three measurements).

SK-MEL-28 [3] = assay: Melanin content determination (OD400) in SK-MEL cells; conditions: for OD400 (melanin) / OD400 expressed as percentage of control (melanin): assayed day 5
Protocol: as §1, §2, §3, §4
[…] The cells were thus continuously exposed to the compounds under study for the 5 days the culture lasted. All the concentrations of the compounds were studied in triplicate, comparing the mean of the 3 wells treated with the compounds with those treated with the vehicle alone.
as §5

[4] = dilution −1, treated daily 3 days
[5] = dilution −2, treated daily 3 days
[6] = dilution −3, treated daily 3 days
[7] = dilution −4, treated daily 3 days
[8] = dilution −5, treated daily 3 days

Oc1ccc(O)cc1 [hydroquinone, 1,4-benzenediol]
OD475 (dopaquinone) (SK-MEL-28 [1]; [4]): 0.0001
OD475 expressed as percentage of control (dopaquinone) (SK-MEL-28 [1]; [4]): 0%
OD475 (dopaquinone) (SK-MEL-28 [1]; [5]): 0.0013
OD475 expressed as percentage of control (dopaquinone) (SK-MEL-28 [1]; [5]): 8%
OD475 (dopaquinone) (SK-MEL-28 [1]; [6]): 0.0083
OD475 expressed as percentage of control (dopaquinone) (SK-MEL-28 [1]; [6]): 51%
OD475 (dopaquinone) (SK-MEL-28 [1]; [7]): 0.0163
OD475 expressed as percentage of control (dopaquinone) (SK-MEL-28 [1]; [7]): 100%
OD475 (dopaquinone) (SK-MEL-28 [1]; [8]): 0.0163
OD475 expressed as percentage of control (dopaquinone) (SK-MEL-28 [1]; [8]): 100%
Toxicity for cells (SK-MEL-28 [2]; SK-MEL-28, high concentrations): toxicity for hydroquinone was higher
Percentage of viable cells (SK-MEL-28 [2]; dilution −1, percentage of control vehicle): 34%
Percentage of viable cells (SK-MEL-28 [2]; dilution −2, percentage of control vehicle): 58%
Percentage of viable cells (SK-MEL-28 [2]; dilution −3, percentage of control vehicle): 77%
Percentage of viable cells (SK-MEL-28 [2]; dilution −4, percentage of control vehicle): 89%
Percentage of viable cells (SK-MEL-28 [2]; dilution −5, percentage of control vehicle): 95%
Melanin synthesis inhibition (SK-MEL-28 [3]; SK-MEL-28, Example 5): stops being effective
OD400 (melanin) (SK-MEL-28 [3]; [4]): 0.007
OD400 expressed as percentage of control (melanin) (SK-MEL-28 [3]; [4]): 21%
OD400 (melanin) (SK-MEL-28 [3]; [5]): 0.012
OD400 expressed as percentage of control (melanin) (SK-MEL-28 [3]; [5]): 36%
OD400 (melanin) (SK-MEL-28 [3]; [6]): 0.021
OD400 expressed as percentage of control (melanin) (SK-MEL-28 [3]; [6]): 64%
OD400 (melanin) (SK-MEL-28 [3]; [7]): 0.036
OD400 expressed as percentage of control (melanin) (SK-MEL-28 [3]; [7]): 109%
OD400 (melanin) (SK-MEL-28 [3]; [8]): 0.034
OD400 expressed as percentage of control (melanin) (SK-MEL-28 [3]; [8]): 103%

— patent publication US20090060851A1, “USE OF IDEBENONE FOR THE PREPARATION OF A TOPICALLY-APPLIED DEPIGMENTATION COMPOSITION AND CORRESPONDING COMPOSITION” (priority 2005, published 2009)
